pIC50: −log10 of the molar value.
What was measured:
[1] = target: T1, TBK1 (Homo sapiens, UniProt Q9UHD2); assay: TR-FRET enzymatic activity assay, TBK1; format: biochemical; also: full length recombinant TBK1 at 2.5 nM
T1 construct: TBK1 and IKKε were expressed and purified as full length recombinant proteins; made in house
T1 sequence (Q9UHD2 1-729): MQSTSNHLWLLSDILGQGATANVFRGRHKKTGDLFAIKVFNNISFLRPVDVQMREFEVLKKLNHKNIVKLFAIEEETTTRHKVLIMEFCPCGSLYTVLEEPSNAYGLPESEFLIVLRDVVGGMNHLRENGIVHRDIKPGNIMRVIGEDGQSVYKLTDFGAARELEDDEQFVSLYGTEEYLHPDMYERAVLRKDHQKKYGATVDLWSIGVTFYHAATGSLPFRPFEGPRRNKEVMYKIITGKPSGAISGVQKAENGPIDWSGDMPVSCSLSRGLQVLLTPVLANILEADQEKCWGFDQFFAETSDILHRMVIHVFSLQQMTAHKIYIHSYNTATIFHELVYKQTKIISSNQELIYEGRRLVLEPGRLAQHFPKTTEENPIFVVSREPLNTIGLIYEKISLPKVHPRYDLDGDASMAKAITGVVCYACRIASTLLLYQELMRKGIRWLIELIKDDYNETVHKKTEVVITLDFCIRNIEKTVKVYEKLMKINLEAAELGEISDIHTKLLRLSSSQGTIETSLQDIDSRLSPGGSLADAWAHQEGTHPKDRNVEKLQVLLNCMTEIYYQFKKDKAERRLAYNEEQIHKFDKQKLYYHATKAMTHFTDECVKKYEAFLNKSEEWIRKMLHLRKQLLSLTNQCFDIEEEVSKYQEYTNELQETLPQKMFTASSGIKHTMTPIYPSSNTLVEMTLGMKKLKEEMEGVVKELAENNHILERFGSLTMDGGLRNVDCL
Procedure: (§1) Biological Assay for TBK1 and IKKε:
(§2) Enzymatic activity of IKKε and TBK1 was measured using a homogeneous time resolved fluorescence resonance energy transfer (TR-FRET) assay that monitors enzyme dependent phosphorylation of a biotinylated serine/threonine peptide substrate. An increase in the amount of phosphorylated peptide results in an increase in TR-FRET signal. TBK1 and IKKε were expressed and purified as full length recombinant proteins. Detection reagents for the assay were purchased from Cisbio. […] After an assay reaction time of 240 minutes at 25° C., reactions were terminated with EDTA.
(§3) Amount of phosphorylated peptide was determined by the addition of 125 nM streptavidin XL665 and europium cryptate labeled anti-phospho monoclonal antibody and the resulting TR-FRET signal was recorded on an Envision plate reader (Ex: 340 nm; Em: 615/665 nm; 100 μs delay and 200 μs read window). Data was normalized based on a positive (1 μM Staurosporine) and negative (DMSO) controls and IC50 values calculated from the fit of the dose-response curves to a four-parameter equation. All IC50 values represent geometric mean values of a minimum of four determinations. These assays generally produced results within 3-fold of the reported mean.

[2] = target: T2, IKKε (Homo sapiens, UniProt Q14164); assay: TR-FRET enzymatic activity assay, IKKε; format: biochemical; details: read-out: IKKϵ IC50; also: full length recombinant IKKε at 0.3 nM
T2 construct: TBK1 and IKKε were expressed and purified as full length recombinant proteins; made in house
T2 sequence (Q14164 1-716): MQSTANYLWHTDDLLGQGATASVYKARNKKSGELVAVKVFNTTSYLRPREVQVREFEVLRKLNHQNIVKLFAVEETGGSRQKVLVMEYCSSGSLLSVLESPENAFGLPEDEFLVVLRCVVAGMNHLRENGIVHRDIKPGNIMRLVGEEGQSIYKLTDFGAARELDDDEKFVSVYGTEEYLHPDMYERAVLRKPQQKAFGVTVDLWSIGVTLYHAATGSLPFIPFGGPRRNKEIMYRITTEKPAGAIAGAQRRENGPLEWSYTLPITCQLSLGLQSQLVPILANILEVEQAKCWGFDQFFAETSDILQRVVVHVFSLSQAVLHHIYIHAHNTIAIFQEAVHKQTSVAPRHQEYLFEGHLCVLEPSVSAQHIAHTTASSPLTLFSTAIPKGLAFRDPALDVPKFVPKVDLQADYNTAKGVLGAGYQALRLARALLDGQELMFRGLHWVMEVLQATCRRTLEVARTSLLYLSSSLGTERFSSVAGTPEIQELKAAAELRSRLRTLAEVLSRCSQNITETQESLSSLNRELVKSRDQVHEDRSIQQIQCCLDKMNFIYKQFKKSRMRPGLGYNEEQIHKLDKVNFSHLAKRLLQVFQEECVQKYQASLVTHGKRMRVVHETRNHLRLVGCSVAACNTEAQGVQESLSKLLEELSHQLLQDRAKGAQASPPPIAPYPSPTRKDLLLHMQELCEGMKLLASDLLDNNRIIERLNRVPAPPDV
Procedure: as §1
as §2, with “An increase in the amount of phosphorylated peptide results in an increase in TR-FRET signal.” left out
as §3, with “determinations.” for “determinations. These assays generally produced results within 3-fold of the reported mean.”

pIC50 [1] | pIC50 [2] | SMILES
7.55 | 6.94 | N#Cc1cc(-c2ccnc(NC(=O)C3CC3)c2)ccc1OC1CCOCC1 [Example 2, N-(4-(3-cyano-4-((tetrahydro-2H-pyran-4-yl)oxy)phenyl)pyridin-2-yl)cyclopropanecarboxamide]
6.48 | 6.55 | N#Cc1cc(-c2ccnc(NC(=O)C3CCC3)c2)ccc1OC1CCOCC1 [Example 3, N-(4-(3-cyano-4-((tetrahydro-2H-pyran-4-yl)oxy)phenyl)pyridin-2-yl)cyclobutanecarboxamide]
7.36 | 6.48 | N#Cc1cc(-c2cc(NC(=O)C3CC3)ncc2F)ccc1OC1CCOCC1 [Example 4, N-(4-(3-cyano-4-((tetrahydro-2H-pyran-4-yl)oxy)phenyl)-5-fluoropyridin-2-yl)cyclopropanecarboxamide]
7.86 | 7.17 | N#Cc1cc(-c2ccnc(NC(=O)C3CC3)c2)ccc1N1CCCC1 [Example 5, N-(4-(3-cyano-4-(pyrrolidin-1-yl)phenyl)pyridin-2-yl)cyclopropanecarboxamide]
7.31 | 6.53 | N#Cc1cc(-c2cc(NC(=O)C3CC3)ncn2)ccc1OC1CCOCC1 [Example 6, N-(6-(3-cyano-4-((tetrahydro-2H-pyran-4-yl)oxy)phenyl)pyrimidin-4-yl)cyclopropanecarboxamide]
6.31 | < 6.00 | COc1cc(-c2ccnc(NC(=O)C3CC3)c2)cc(C#N)c1OC1CCOCC1 [Example 7, N-(4-(3-cyano-5-methoxy-4-((tetrahydro-2H-pyran-4-yl)oxy)phenyl)pyridin-2-yl)cyclopropanecarboxamide]
7.98 | 7.60 | N#Cc1cc(-c2ccnc(NC(=O)C3CC3)c2)ccc1O[C@H]1CCN(C(=O)CO)C[C@H]1F [Example 8, N-(4-(3-cyano-4-(((3R,4S)-3-fluoro-1-(2-hydroxyacetyl)piperidin-4-yl)oxy)phenyl)pyridin-2-yl)cyclopropanecarboxamide]
7.82 | 7.33 | C[C@H](O)C(=O)N1CC[C@H](Oc2ccc(-c3ccnc(NC(=O)C4CC4)c3)cc2C#N)[C@H](F)C1 [Example 9, N-(4-(3-cyano-4-(((3R,4S)-3-fluoro-1-((S)-2-hydroxypropanoyl)piperidin-4-yl)oxy)phenyl)pyridin-2-yl)cyclopropanecarboxamide]
8.38 | 8.13 | N#Cc1cc(-c2ccnc(NC(=O)C3CC3)c2)ccc1O[C@H]1CCN(C(=O)CO)CC1(F)F [Example 10, (S)—N-(4-(3-cyano-4-((3,3-difluoro-1-(2-hydroxyacetyl)piperidin-4-yl)oxy)phenyl)pyridin-2-yl)cyclopropanecarboxamide]
7.99 | 7.58 | C[C@H](O)C(=O)N1CC[C@H](Oc2ccc(-c3ccnc(NC(=O)C4CC4)c3)cc2C#N)C(F)(F)C1 [Example 11, N-(4-(3-cyano-4-(((S)-3,3-difluoro-1-((S)-2 hydroxypropanoyl)piperidin-4-yl)oxy)phenyl)pyridin-2-yl)cyclopropanecarboxamide]
7.43 | 6.92 | N#CCC(=O)N1CC[C@H](Oc2ccc(-c3ccnc(NC(=O)C4CC4)c3)cc2C#N)[C@H](F)C1 [Example 12, N-(4-(3-cyano-4-(((3R,4S)-1-(2-cyanoacetyl)-3-fluoropiperidin-4-yl)oxy)phenyl)pyridin-2-yl)cyclopropanecarboxamide]
7.91 | 7.36 | N#CCC(=O)N1CC[C@H](Oc2ccc(-c3ccnc(NC(=O)C4CC4)c3)cc2C#N)C(F)(F)C1 [Example 13, (S)—N-(4-(3-cyano-4-((1-(2-cyanoacetyl)-3,3-difluoropiperidin-4-yl)oxy)phenyl)pyridin-2-yl)cyclopropanecarboxamide]
8.26 | 7.73 | N#Cc1cc(-c2ccnc(NC(=O)C3CC3)c2)ccc1O[C@H]1CCN(C(=O)[C@@H]2CCC(=O)N2)CC1(F)F [Example 14, N-(4-(3-cyano-4-(((S)-3,3-difluoro-1-((S)-5-oxopyrrolidine-2-carbonyl)piperidin-4-yl)oxy)phenyl)pyridin-2-yl)cyclopropanecarboxamide]
7.63 | 7.07 | N#Cc1cc(-c2ccnc(NC(=O)C3CC3)c2)ccc1O[C@H]1CCN(C(=O)CCO)CC1(F)F [Example 15, (S)—N-(4-(3-cyano-4-((3,3-difluoro-1-(3-hydroxypropanoyl)piperidin-4-yl)oxy)phenyl)pyridin-2-yl)cyclopropanecarboxamide]
7.28 | 6.45 | N#Cc1cc(-c2ccnc(NC(=O)C3CC3)c2)ccc1N1CC[C@H](O)C1 [Example 16, (S)—N-(4-(3-cyano-4-(3-hydroxypyrrolidin-1-yl)phenyl)pyridin-2-yl)cyclopropanecarboxamide]
7.38 | 6.63 | N#Cc1cc(-c2ccnc(NC(=O)C3CC3)c2)ccc1N1CC[C@@H](O)C1 [Example 17, (R)—N-(4-(3-cyano-4-(3-hydroxypyrrolidin-1-yl)phenyl)pyridin-2-yl)cyclopropanecarboxamide]
7.69 | 7.21 | N#Cc1cc(-c2ccnc(NC(=O)C3CC3)c2)ccc1N1CC[C@H](F)C1 [Example 18, (S)—N-(4-(3-cyano-4-(3-fluoropyrrolidin-1-yl)phenyl)pyridin-2-yl)cyclopropanecarboxamide]
7.81 | 7.27 | N#Cc1cc(-c2cc(NC(=O)C3CC3)ncn2)ccc1O[C@H]1CCN(C(=O)CO)C[C@H]1F [Example 19, N-(6-(3-cyano-4-(((3R,4S)-3-fluoro-1-(2-hydroxyacetyl)piperidin-4-yl)oxy)phenyl)pyrimidin-4-yl)cyclopropanecarboxamide]
8.32 | 8.02 | N#Cc1cc(-c2cc(NC(=O)C3CC3)ncn2)ccc1O[C@H]1CCN(C(=O)CO)CC1(F)F [Example 20, (S)—N-(6-(3-cyano-4-((3,3-difluoro-1-(2-hydroxyacetyl)piperidin-4-yl)oxy)phenyl)pyrimidin-4-yl)cyclopropanecarboxamide]
8.21 | 7.50 | N#Cc1cc(-c2cc(NC(=O)C3CC3)ncn2)ccc1O[C@H]1CCN(C(=O)[C@@H](O)CO)C[C@H]1F [Example 21, N-(6-(3-cyano-4-(((3R,4S)-1-((S)-2,3-dihydroxypropanoyl)-3-fluoropiperidin-4-yl)oxy)phenyl)pyrimidin-4-yl)cyclopropanecarboxamide]
